Assay results published in PubChem BioAssay AID248 (DTP/NCI, 2004).
“And” between values parts separate entries of the source, which are not always exact repeats. Identical values can stand only once. Toxic doses and inconclusive results are not listed.

Test system: L1210 leukemia ip in BDF1 mice, survival T/C
Experiment: NCI In Vivo Anticancer Drug Screen. Data for tumor model L1210 Leukemia (intraperitoneal) in B6D2F1 (BDF1) mice
Settings: endpoint: mean survival time, higher = longer survival
In short: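 Survival endpoint. Drug-treated group vs vehicle group, expressed as T divided by C. Tumor passaged by transplantation.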

[1] = dose: 100.0 mg/kg/injection, schedule: Q04DX003 (ip), vehicle: saline with Tween-80
[2] = dose: 75.0 mg/kg/injection, schedule: Q01DX001 (ip), vehicle: saline
[3] = dose: 150.0 mg/kg/injection, schedule: Q01DX001 (ip), vehicle: saline
[4] = dose: 100.0 mg/kg/injection, schedule: Q04DX003 (ip), vehicle: Klucel (hydroxypropylcellulose) (HPC)
[5] = dose: 200.0 mg/kg/injection, schedule: Q04DX003 (ip), vehicle: Klucel (hydroxypropylcellulose) (HPC)
[6] = dose: 5.0 mg/kg/injection, schedule: Q01DX001 (ip), vehicle: saline
[7] = dose: 10.0 mg/kg/injection, schedule: Q01DX001 (ip), vehicle: saline
[8] = dose: 20.0 mg/kg/injection, schedule: Q01DX001 (ip), vehicle: saline
[9] = dose: 40.0 mg/kg/injection, schedule: Q01DX001 (ip), vehicle: saline
[10] = dose: 50.0 mg/kg/injection, schedule: Q01DX001 (ip), vehicle: saline
[11] = dose: 100.0 mg/kg/injection, schedule: Q01DX001 (ip), vehicle: saline
[12] = dose: 200.0 mg/kg/injection, schedule: Q01DX001 (ip), vehicle: saline
[13] = dose: 400.0 mg/kg/injection, schedule: Q01DX001 (ip), vehicle: saline
[14] = dose: 50.0 mg/kg/injection, schedule: Q01DX009 (ip), vehicle: Klucel (hydroxypropylcellulose) (HPC)
[15] = dose: 100.0 mg/kg/injection, schedule: Q01DX009 (ip), vehicle: Klucel (hydroxypropylcellulose) (HPC)

O=c1[nH]cc(CC(F)C(F)(F)F)c(=O)[nH]1 (configuration not stated)
T/C (dose: 60.0 mg/kg/injection, schedule: Q01DX001 (ip), vehicle: DMSO): 91 % of control | T/C (dose: 120.0 mg/kg/injection, schedule: Q01DX001 (ip), vehicle: DMSO): 105 % of control

CCCCN(CCCC)CC(O)c1cc(OC)c2cc(Cl)cc(Cl)c2n1 (configuration not stated)
T/C [1]: 98 % of control | T/C (dose: 200.0 mg/kg/injection, schedule: Q04DX003 (ip), vehicle: saline with Tween-80): 91 % of control | T/C (dose: 400.0 mg/kg/injection, schedule: Q04DX003 (ip), vehicle: saline with Tween-80): 94 % of control

CCOC(=O)NC(NC(=O)OCC)C(NC(=O)OCC)NC(=O)OCC
T/C (dose: 100.0 mg/kg/injection, schedule: Q01DX001 (ip), vehicle: carboxymethylcellulose (CMC)): 87 % of control | T/C (dose: 200.0 mg/kg/injection, schedule: Q01DX001 (ip), vehicle: carboxymethylcellulose (CMC)): 91 % of control | T/C (dose: 400.0 mg/kg/injection, schedule: Q01DX001 (ip), vehicle: carboxymethylcellulose (CMC)): 91 % of control

CC1CC(=O)N(Cl)C(=O)N1Cl (configuration not stated)
T/C [2]: 102 % of control | T/C [3]: 106 % of control

O=C(Oc1c(Cl)cc(Cl)cc1C=Nc1cccc(C(F)(F)F)c1)c1ccccc1
T/C (dose: 100.0 mg/kg/injection, schedule: Q01DX009 (ip), vehicle: other): 101 % of control | T/C (dose: 200.0 mg/kg/injection, schedule: Q01DX009 (ip), vehicle: other): 101 % of control | T/C (dose: 400.0 mg/kg/injection, schedule: Q01DX009 (ip), vehicle: other): 101 % of control

CCOC(=O)C1C(=O)C2CCc3c(ccc4ccccc34)N2C1=O (configuration not stated)
T/C [4]: 98 % of control | T/C [5]: 104 % of control

CCOC(=O)c1[nH]c(=S)[nH]c1C(=O)OCC
T/C [6]: 102 % of control | T/C [7]: 102 % of control | T/C [8]: 104 % of control | T/C [9]: 94 % of control | T/C (dose: 80.0 mg/kg/injection, schedule: Q01DX001 (ip), vehicle: saline): 95 % of control

O=S(=O)(Cl)c1ccc(F)cc1
T/C (dose: 100.0 mg/kg/injection, schedule: Q01DX009 (ip), vehicle: saline with Tween-80): 98 % of control | T/C (dose: 200.0 mg/kg/injection, schedule: Q01DX009 (ip), vehicle: saline with Tween-80): 96 % of control | T/C (dose: 400.0 mg/kg/injection, schedule: Q01DX009 (ip), vehicle: saline with Tween-80): 90 % of control

CC1(C)OC2C(CO)OC(n3cnc4c(=O)[nH]cnc43)C2O1 (configuration not stated)
T/C [2]: 102 % of control | T/C [3]: 92 % of control

OCCN(CCO)Cc1cc(Cl)c2cccnc2c1O
T/C [2]: 102 % of control | T/C [3]: 104 % of control

C=C(CCC(=O)OC)C1=C(C)CC2OC(=O)C(=C)C2C1 (configuration not stated)
T/C (dose: 50.0 mg/kg/injection, schedule: Q04DX002 (ip), vehicle: saline): 120 % of control | T/C (dose: 100.0 mg/kg/injection, schedule: Q04DX002 (ip), vehicle: saline): 113 % of control | T/C (dose: 200.0 mg/kg/injection, schedule: Q04DX002 (ip), vehicle: saline): 100 % of control

OCC(O)C(O)C(O)C(O)C(c1ccc(F)cc1)c1ccc(F)cc1 (configuration not stated)
T/C [10]: 98 % of control | T/C [11]: 106 % of control and 102 % of control | T/C [12]: 101 % of control | T/C [13]: 93 % of control

O=P(CCl)(Oc1ccc(Cl)cc1)Oc1ccc(Cl)cc1
T/C [11]: 103 % of control | T/C [12]: 95 % of control

O=C(NCCCCCCNC(=O)N1CC1)N1CC1
T/C (dose: 0.08 mg/kg/injection, schedule: Q01DX009 (ip), vehicle: saline): 107 % of control | T/C (dose: 0.15 mg/kg/injection, schedule: Q01DX009 (ip), vehicle: saline): 97 % of control | T/C (dose: 0.19 mg/kg/injection, schedule: Q01DX009 (ip), vehicle: saline): 122 % of control | T/C (dose: 0.3 mg/kg/injection, schedule: Q01DX009 (ip), vehicle: saline): 119 % of control | T/C (dose: 0.4 mg/kg/injection, schedule: Q04DX003 (ip), vehicle: saline): 113 % of control | T/C (dose: 0.66 mg/kg/injection, schedule: Q01DX009 (ip), vehicle: saline): 168 % of control | T/C (dose: 0.8 mg/kg/injection, schedule: Q04DX003 (ip), vehicle: saline): 115 % of control | T/C (dose: 1.4 mg/kg/injection, schedule: Q01DX009 (ip), vehicle: saline): 117 % of control | T/C (dose: 1.7 mg/kg/injection, schedule: Q01DX001 (ip), vehicle: saline): 121 % of control | T/C (dose: 2.2 mg/kg/injection, schedule: Q01DX009 (ip), vehicle: saline): 86 % of control | T/C (dose: 2.5 mg/kg/injection, schedule: Q04DX003 (ip), vehicle: saline): 166 % of control | T/C (dose: 3.75 mg/kg/injection, schedule: Q01DX001 (ip), vehicle: saline): 150 % of control

CC(=O)C1(O)CCC2C3CCC4=CC(=O)CCC4(C)C3CC(=O)C21C (configuration not stated)
T/C (dose: 75.0 mg/kg/injection, schedule: Q01DX001 (ip), vehicle: other): 95 % of control | T/C (dose: 150.0 mg/kg/injection, schedule: Q01DX001 (ip), vehicle: other): 93 % of control | T/C (dose: 300.0 mg/kg/injection, schedule: Q01DX001 (ip), vehicle: other): 95 % of control

CCCCCN(CCCCC)CC(O)C1c2ccccc2Cc2ccccc21 (configuration not stated)
T/C [6]: 102 % of control | T/C [7]: 98 % of control | T/C [8]: 102 % of control | T/C [9]: 104 % of control | T/C [11]: 101 % of control

C/C=C1\CCCCN(Cc2ccccc2)CCC1
T/C [2]: 104 % of control | T/C [3]: 98 % of control

COC(=O)C(NC(=O)C(NC(=O)Cc1ccccc1)SCc1ccccc1)=C(C)C (configuration not stated)
T/C (dose: 100.0 mg/kg/injection, schedule: Q04DX003 (ip), vehicle: saline): 95 % of control | T/C (dose: 200.0 mg/kg/injection, schedule: Q04DX003 (ip), vehicle: saline): 89 % of control

C/C(=C1\C(=O)Nc2ccccc21)c1cccnc1
T/C (dose: 25.0 mg/kg/injection, schedule: Q01DX Z (ip), vehicle: carboxymethylcellulose (CMC)): 103 % of control | T/C (dose: 50.0 mg/kg/injection, schedule: Q01DX Z (ip), vehicle: carboxymethylcellulose (CMC)): 96 % of control | T/C (dose: 100.0 mg/kg/injection, schedule: Q01DX Z (ip), vehicle: carboxymethylcellulose (CMC)): 103 % of control | T/C (dose: 200.0 mg/kg/injection, schedule: Q01DX Z (ip), vehicle: carboxymethylcellulose (CMC)): 111 % of control

CCOC(=O)c1ccc(C)[n+]([O-])c1
T/C [10]: 96 % of control | T/C [11]: 98 % of control | T/C [12]: 100 % of control | T/C [13]: 93 % of control

CC(=O)c1cccc(NC(=O)c2ccc(C(=O)Nc3cccc(C(C)=O)c3)cc2)c1
T/C (dose: 100.0 mg/kg/injection, schedule: Q01DX001 (ip), vehicle: other): 104 % of control | T/C (dose: 200.0 mg/kg/injection, schedule: Q01DX001 (ip), vehicle: other): 102 % of control | T/C (dose: 400.0 mg/kg/injection, schedule: Q01DX001 (ip), vehicle: other): 89 % of control

O=c1cc(O)c2ccccc2o1
T/C [14]: 104 % of control | T/C [15]: 93 % of control | T/C (dose: 200.0 mg/kg/injection, schedule: Q01DX009 (ip), vehicle: Klucel (hydroxypropylcellulose) (HPC)): 90 % of control

CCCOC(=O)NNC(=O)OCCC
T/C (dose: 75.0 mg/kg/injection, schedule: Q01DX009 (ip), vehicle: Klucel (hydroxypropylcellulose) (HPC)): 93 % of control

Cc1cccc(N=P(c2ccccc2)(c2ccccc2)c2ccccc2)c1
T/C [14]: 96 % of control | T/C [15]: 88 % of control | T/C [4]: 95 % of control | T/C [5]: 96 % of control

CCOC(=O)C1(CCC(C)=O)CCCCC1=O (configuration not stated)
T/C (dose: 100.0 mg/kg/injection, schedule: Q04DX002 (ip), vehicle: Klucel (hydroxypropylcellulose) (HPC)): 97 % of control | T/C (dose: 200.0 mg/kg/injection, schedule: Q04DX002 (ip), vehicle: Klucel (hydroxypropylcellulose) (HPC)): 103 % of control | T/C (dose: 400.0 mg/kg/injection, schedule: Q04DX002 (ip), vehicle: Klucel (hydroxypropylcellulose) (HPC)): 100 % of control

Clc1nn2nnnc2c2ccccc12
T/C (dose: 6.25 mg/kg/injection, schedule: Q04DX002 (ip), vehicle: Klucel (hydroxypropylcellulose) (HPC)): 93 % of control | T/C (dose: 12.5 mg/kg/injection, schedule: Q04DX002 (ip), vehicle: Klucel (hydroxypropylcellulose) (HPC)): 93 % of control | T/C (dose: 25.0 mg/kg/injection, schedule: Q04DX002 (ip), vehicle: Klucel (hydroxypropylcellulose) (HPC)): 96 % of control | T/C (dose: 25.0 mg/kg/injection, schedule: Q04DX003 (ip), vehicle: saline with Tween-80): 98 % of control | T/C (dose: 50.0 mg/kg/injection, schedule: Q04DX003 (ip), vehicle: saline with Tween-80): 101 % of control | T/C [1]: 98 % of control

Nc1cc(=O)[nH]c(=S)n1-c1ccc(Br)cc1
T/C [10]: 93 % of control | T/C [11]: 102 % of control | T/C [12]: 93 % of control | T/C [13]: 108 % of control
